Measured values from patent publication US20200181212A1 (priority 2014, published 2020).

Assay: physchem
Settings: cells or culture medium

## CC(C)C[C@@H]1NC(=O)[C@H](CO)NC(=O)[C@@H]2CSSC[C@@H]3NC(=O)[C@H]([C@@H](C)O)NC(=O)[C@H](C)NC(=O)[C@H](CC(=O)O)NC(=O)[C@H](CC(=O)O)NC(=O)[C@H](CSSC[C@H](NC(=O)[C@H](Cc4ccc(O)cc4)NC(=O)[C@@H](N)CCC(N)=O)C(=O)N[C@@H](C(C)C)C(=O)N4CCC[C@H]4C(=O)N[C@@H](C(C)C)C(=O)N[C@@H](CC(=O)O)C(=O)N[C@@H](CCC(N)=O)C(=O)N4CCC[C@H]4C(=O)N2)NC(=O)[C@H](CSSC[C@@H](C(=O)N[C@@H](CCCNC(=N)N)C(=O)N[C@@H](C)C(=O)O)NC(=O)[C@H](Cc2ccc(O)cc2)NC(=O)[C@H](Cc2ccc(O)cc2)NC(=O)[C@H](C(C)C)NC(=O)[C@H]([C@@H](C)O)NC(=O)[C@H](Cc2c[nH]cn2)NC(=O)CNC(=O)[C@H](CC(N)=O)NC(=O)[C@H](CCC(=O)O)NC(=O)[C@H](CC(N)=O)NC(=O)[C@H](CCCNC(=N)N)NC(=O)[C@H](CCC(=O)O)NC(=O)[C@H](CCC(N)=O)NC(=O)[C@H]([C@@H](C)O)NC3=O)NC(=O)[C@@H]2CCCN2C(=O)[C@H](CCC(N)=O)NC(=O)[C@H]([C@@H](C)O)NC(=O)[C@H](CC(N)=O)NC1=O (single isomer, unassigned) [Peak 1]
  remaining at 24 h: 5.6%
